Laboratory results published in ChEMBL document CHEMBL3885881, “DrugMatrix”.

Species on record: Rattus norvegicus
Experiment: DrugMatrix - Regimen: Daily Repeat
Format: toxicity, organism-based, Sprague-Dawley
Parameters: regimen Daily Repeat, gender Male, age 6-8 weeks
Conditions: in vivo, ip, 0 mg/kg, route intraperitoneal, dose level Control, vehicle 100 % SALINE; for ABSOLUTE BASOPHIL / ABSOLUTE EOSINOPHIL / ABSOLUTE LYMPHOCYTE / ABSOLUTE MONOCYTE / ABSOLUTE SEGMENTED NEUTROPHIL / BASOPHIL / EOSINOPHIL / ERYTHROCYTE COUNT / HEMATOCRIT / HEMOGLOBIN / LEUKOCYTE COUNT / LYMPHOCYTE / MEAN CORPUSCULAR HEMOGLOBIN / MEAN CORPUSCULAR HEMOGLOBIN CONCENTRATION / MEAN CORPUSCULAR VOLUME / MONOCYTE / NEUTROPHIL / PLATELET COUNT: tissue Blood
[1] = 120 h, tissue Plasma, time 5 day
[2] = […], tissue Plasma, time 14 day
[3] = […], tissue Plasma, time 28 day

Work on TRANSPLATIN yielded an ABSOLUTE BASOPHIL (120 h, time 5 day) of 32 cells/µL, an ABSOLUTE EOSINOPHIL (120 h, time 5 day) of 110 cells/µL and an ABSOLUTE LYMPHOCYTE (120 h, time 5 day) of 6630 cells/µL. For the same sequence, the ABSOLUTE MONOCYTE (120 h, time 5 day) was 140 cells/µL, the ABSOLUTE SEGMENTED NEUTROPHIL (120 h, time 5 day) was 1170 cells/µL and the BASOPHIL (120 h, time 5 day) was 0.38%. For the same sequence, the EOSINOPHIL (120 h, time 5 day) was 1.28%, the “ERYTHROCYTE COUNT” value (120 h, time 5 day) was 7.45 x10E6/uL and the HEMATOCRIT (120 h, time 5 day) was 45.74%. For the same sequence, the HEMOGLOBIN (120 h, time 5 day) was 14.72 G/DL, the “LEUKOCYTE COUNT” value (120 h, time 5 day) was 8.11 x10E3/uL and the LYMPHOCYTE (120 h, time 5 day) was 81.3%. The “MEAN CORPUSCULAR HEMOGLOBIN” value (120 h, time 5 day) was 19.76 pg, the “MEAN CORPUSCULAR HEMOGLOBIN CONCENTRATION” value (120 h, time 5 day) was 32.16 G/DL and the “MEAN CORPUSCULAR VOLUME” value (120 h, time 5 day) was 61.38 fL. For the same sequence, the MONOCYTE (120 h, time 5 day) was 1.76%, the NEUTROPHIL (120 h, time 5 day) was 14.9% and the “PLATELET COUNT” value (120 h, time 5 day) was 1322.4 x10E3/uL. For the same sequence, the “ALANINE AMINOTRANSFERASE” value [1] was 25.8 u/L, the ALBUMIN [1] was 3.64 G/DL and the “ASPARTATE AMINOTRANSFERASE” value [1] was 81.4 u/L. The “BLOOD UREA NITROGEN” value [1] was 14.4 mg/dL, the CHOLESTEROL [1] was 69.2 mg/dL and the “CREATINE PHOSPHOKINASE” value [1] was 303.2 u/L. For the same sequence, the CREATININE [1] was 0.56 mg/dL, the GLUCOSE [1] was 125.4 mg/dL and the “LACTATE DEHYDROGENASE” value [1] was 105.4 u/L. It also gave an LIPASE [1] of 22.4 u/L, a POTASSIUM [1] of 5.52 MEQ/L and an SODIUM [1] of 147 MEQ/L. For the same sequence, the “TOTAL BILIRUBIN” value [1] was 0.2 mg/dL, the “TOTAL PROTEIN” value [1] was 6.1 G/DL and the “URIC ACID” value [1] was 1.06 mg/dL. It also gave an ABSOLUTE BASOPHIL ([…], time 14 day) of 130 cells/µL, an ABSOLUTE EOSINOPHIL ([…], time 14 day) of 140 cells/µL and an ABSOLUTE LYMPHOCYTE ([…], time 14 day) of 13500 cells/µL. It also gave an ABSOLUTE MONOCYTE ([…], time 14 day) of 400 cells/µL, an ABSOLUTE SEGMENTED NEUTROPHIL ([…], time 14 day) of 2330 cells/µL and a BASOPHIL ([…], time 14 day) of 0.72%. The EOSINOPHIL ([…], time 14 day) was 0.86%, the “ERYTHROCYTE COUNT” value ([…], time 14 day) was 7.74 x10E6/uL and the HEMATOCRIT ([…], time 14 day) was 45.98%. For the same sequence, the “LEUKOCYTE COUNT” value ([…], time 14 day) was 16.61 x10E3/uL, the LYMPHOCYTE ([…], time 14 day) was 81.34% and the “MEAN CORPUSCULAR HEMOGLOBIN” value ([…], time 14 day) was 18 pg. For the same sequence, the “MEAN CORPUSCULAR HEMOGLOBIN CONCENTRATION” value ([…], time 14 day) was 30.22 G/DL, the “MEAN CORPUSCULAR VOLUME” value ([…], time 14 day) was 59.4 fL and the MONOCYTE ([…], time 14 day) was 2.46%. For the same sequence, the NEUTROPHIL ([…], time 14 day) was 14.14%, the “PLATELET COUNT” value ([…], time 14 day) was 1445.5 x10E3/uL and the ABSOLUTE BASOPHIL ([…], time 28 day) was 91 cells/µL. The ABSOLUTE EOSINOPHIL ([…], time 28 day) was 110 cells/µL, the ABSOLUTE LYMPHOCYTE ([…], time 28 day) was 9910 cells/µL and the ABSOLUTE MONOCYTE ([…], time 28 day) was 210 cells/µL. For the same sequence, the ABSOLUTE SEGMENTED NEUTROPHIL ([…], time 28 day) was 1560 cells/µL, the BASOPHIL ([…], time 28 day) was 0.77% and the EOSINOPHIL ([…], time 28 day) was 0.92%. The “ERYTHROCYTE COUNT” value ([…], time 28 day) was 8.21 x10E6/uL, the HEMATOCRIT ([…], time 28 day) was 47.53% and the HEMOGLOBIN ([…], time 28 day) was 15.65 G/DL. For the same sequence, the “LEUKOCYTE COUNT” value ([…], time 28 day) was 11.91 x10E3/uL, the LYMPHOCYTE ([…], time 28 day) was 83.34% and the “MEAN CORPUSCULAR HEMOGLOBIN” value ([…], time 28 day) was 19.07 pg. The “MEAN CORPUSCULAR HEMOGLOBIN CONCENTRATION” value ([…], time 28 day) was 32.93 G/DL, the “MEAN CORPUSCULAR VOLUME” value ([…], time 28 day) was 57.9 fL and the MONOCYTE ([…], time 28 day) was 1.68%. The NEUTROPHIL ([…], time 28 day) was 12.97%, the “PLATELET COUNT” value ([…], time 28 day) was 1323.8 x10E3/uL and the “ALANINE AMINOTRANSFERASE” value [2] was 31.6 u/L. For the same sequence, the ALBUMIN [2] was 3.66 G/DL, the “ALKALINE PHOSPHATASE” value [2] was 228.6 u/L and the “ASPARTATE AMINOTRANSFERASE” value [2] was 79.6 u/L. For the same sequence, the “BLOOD UREA NITROGEN” value [2] was 11.2 mg/dL, the CHLORIDE [2] was 107 MEQ/L and the CHOLESTEROL [2] was 57 mg/dL. The CREATININE [2] was 0.5 mg/dL, the GLUCOSE [2] was 124.4 mg/dL and the “LACTATE DEHYDROGENASE” value [2] was 106.4 u/L. The LIPASE [2] was 24.4 u/L, the PHOSPHORUS [2] was 10.52 mg/dL and the POTASSIUM [2] was 6.34 MEQ/L. For the same sequence, the SODIUM [2] was 149.2 MEQ/L, the “TOTAL BILIRUBIN” value [2] was 0.2 mg/dL and the “TOTAL PROTEIN” value [2] was 6.48 G/DL. For the same sequence, the “URIC ACID” value [2] was 0.94 mg/dL, the “ALANINE AMINOTRANSFERASE” value [3] was 30 u/L and the ALBUMIN [3] was 3.71 G/DL. The “ALKALINE PHOSPHATASE” value [3] was 186.8 u/L, the “ASPARTATE AMINOTRANSFERASE” value [3] was 78.2 u/L and the “BLOOD UREA NITROGEN” value [3] was 14.2 mg/dL. For the same sequence, the CHOLESTEROL [3] was 44.9 mg/dL, the “CREATINE PHOSPHOKINASE” value [3] was 334.3 u/L and the CREATININE [3] was 0.6 mg/dL. The GLUCOSE [3] was 147.2 mg/dL, the “LACTATE DEHYDROGENASE” value [3] was 123.1 u/L and the LIPASE [3] was 9.6 u/L. For the same sequence, the PHOSPHORUS [3] was 10.01 mg/dL, the POTASSIUM [3] was 6.57 MEQ/L and the SODIUM [3] was 149.5 MEQ/L. For the same sequence, the “TOTAL BILIRUBIN” value [3] was 0.21 mg/dL, the “TOTAL PROTEIN” value [3] was 6.66 G/DL and the “URIC ACID” value [3] was 1.26 mg/dL.
